# Calls of active or inactive are those of the source.
# Columns and labels:
# [1] = target: G-protein coupled receptor 55 (Homo sapiens, UniProt Q9Y2T6); experiment: inhibition of LPI-stimulated GPR55 beta-arrestin translocation – imaging, U2OS, beta-arrestin-GFP, LPI agonist, primary screen (AID 2013); assay type: functional;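 note: antagonist potency measured as reduced agonist-driven arrestin aggregation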
# [2] = NIH-3T3 fibroblast cytotoxicity, dose response, cytotoxicity control, cell-based, fluorescence, Alamar Blue, secondary assay (AID 2327); assay type: functional;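 note: NIH-3T3 mouse fibroblasts cultured with fluconazole at 8 µg/mL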
# [3] = fluconazole-exposed Candida albicans growth modulators – fluorescence, retest, confirmation (AID 2467); assay type: functional, cell-based
# [4] = target: T1, Serine/threonine-protein phosphatase (Candida dubliniensis (strain CD36 / CBS 7987 / NCPF 3949 / NRRLY-17841) (Yeast), UniProt B9W6M3); experiment: blockers of CaCl2-induced CDRE-lacZ signaling – S. cerevisiae, luminescence, secondary, dose response (AID 2388); assay type: functional, cell-based;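 note: yeast reporter cells carrying a calcineurin-responsive lacZ construct stimulated with calcium chloride; luminescent beta-galactosidase reporter signal in whole cells rather than isolated phosphatase activity; potency for inhibition where a drop in reporter signal means calcineurin blockade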
# T1 sequence (B9W6M3 whole entry): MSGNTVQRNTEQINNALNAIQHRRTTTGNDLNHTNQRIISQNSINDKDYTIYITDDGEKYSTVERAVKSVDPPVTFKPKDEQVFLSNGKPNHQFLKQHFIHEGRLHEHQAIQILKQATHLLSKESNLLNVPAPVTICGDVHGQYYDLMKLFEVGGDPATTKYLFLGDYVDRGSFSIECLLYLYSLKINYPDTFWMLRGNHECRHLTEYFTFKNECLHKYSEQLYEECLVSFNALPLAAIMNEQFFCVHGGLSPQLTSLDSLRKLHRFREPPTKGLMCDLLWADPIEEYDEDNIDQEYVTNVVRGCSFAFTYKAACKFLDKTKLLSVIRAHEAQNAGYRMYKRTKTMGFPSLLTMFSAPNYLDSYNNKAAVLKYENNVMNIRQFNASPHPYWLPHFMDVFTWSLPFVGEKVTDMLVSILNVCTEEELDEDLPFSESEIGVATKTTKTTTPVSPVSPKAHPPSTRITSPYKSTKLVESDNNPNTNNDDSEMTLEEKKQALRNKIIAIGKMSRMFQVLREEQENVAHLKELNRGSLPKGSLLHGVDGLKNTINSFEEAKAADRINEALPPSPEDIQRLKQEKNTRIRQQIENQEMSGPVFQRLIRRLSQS
# [5] = target: ATP-dependent molecular chaperone HSP82 (Candida albicans (strain WO-1) (Yeast), UniProt C4YTQ8); experiment: steroid-induced GRE reporter decrease in yeast – S. cerevisiae, luminescence, Hsp90 inhibitor project, dose response (AID 2400); assay type: functional, cell-based;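 note: beta-galactosidase luminescence from glucocorticoid response element reporter as proxy for Hsp90 function; inhibitor potency where signal loss means Hsp90 inhibition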
# [6] = target: Glyceraldehyde-3-phosphate dehydrogenase (Homo sapiens, UniProt P04406)
# [7] = target: Genome polyprotein (dengue virus type 2, UniProt P29990); experiment: flavivirus cap methylation enzyme inhibition – biochemical, confirmation dose response, primary screen (AID 588689); assay type: functional
# [8] = THP-1 cell cytotoxicity, dose response, cytotoxicity control for non-replicating M. tuberculosis project (AID 489025); assay type: functional
# [9] = Vero E6 cell cytotoxicity, dose response, cytotoxicity control for non-replicating M. tuberculosis project, secondary assay (AID 492998); assay type: functional, VeroE6; conditions: Vero C1008
# [10] = cells; assay type: functional
# [11] = target: T2, Replicative DNA helicase DnaB (Mycobacterium tuberculosis, UniProt P9WMR3); experiment: DnaB intein splicing inhibitors, dose response, biochemical, cell-free fluorescence (AID 449749); assay type: functional
# T2 sequence (P9WMR3 whole entry): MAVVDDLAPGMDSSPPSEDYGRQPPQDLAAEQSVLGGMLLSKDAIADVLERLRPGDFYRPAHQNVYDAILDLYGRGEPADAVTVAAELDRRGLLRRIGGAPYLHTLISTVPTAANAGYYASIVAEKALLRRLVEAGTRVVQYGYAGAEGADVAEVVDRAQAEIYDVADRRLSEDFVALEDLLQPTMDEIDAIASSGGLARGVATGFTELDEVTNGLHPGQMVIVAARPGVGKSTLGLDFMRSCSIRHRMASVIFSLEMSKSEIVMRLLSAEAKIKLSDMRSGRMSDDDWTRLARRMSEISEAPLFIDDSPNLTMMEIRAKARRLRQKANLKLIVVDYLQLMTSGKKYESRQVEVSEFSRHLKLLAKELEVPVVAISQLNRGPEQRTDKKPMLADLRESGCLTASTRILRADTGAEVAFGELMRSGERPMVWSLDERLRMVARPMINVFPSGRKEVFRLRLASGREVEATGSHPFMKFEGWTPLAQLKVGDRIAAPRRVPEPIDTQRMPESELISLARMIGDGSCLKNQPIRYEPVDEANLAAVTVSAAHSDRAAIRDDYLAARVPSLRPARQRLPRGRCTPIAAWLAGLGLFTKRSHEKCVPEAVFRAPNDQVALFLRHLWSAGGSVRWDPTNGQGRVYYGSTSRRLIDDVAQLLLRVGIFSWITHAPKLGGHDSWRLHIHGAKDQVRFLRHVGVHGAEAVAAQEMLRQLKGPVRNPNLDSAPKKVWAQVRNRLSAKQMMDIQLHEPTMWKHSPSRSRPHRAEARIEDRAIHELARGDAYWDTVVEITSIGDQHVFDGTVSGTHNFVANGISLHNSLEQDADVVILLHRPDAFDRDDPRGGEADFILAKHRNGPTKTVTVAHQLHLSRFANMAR
# [12] = target: T3, Protein RecA (Mycobacterium tuberculosis, UniProt P9WHJ3); experiment: Fluorescence Cell-Free Homogeneous Dose Retest to Identify Inhibitors of RecA-Intein Splicing Activity. [Related pubchem assays (depositor defined):AID2097, AID2223, AID489010, AID492950]; assay type: functional
# T3 sequence (P9WHJ3 whole entry): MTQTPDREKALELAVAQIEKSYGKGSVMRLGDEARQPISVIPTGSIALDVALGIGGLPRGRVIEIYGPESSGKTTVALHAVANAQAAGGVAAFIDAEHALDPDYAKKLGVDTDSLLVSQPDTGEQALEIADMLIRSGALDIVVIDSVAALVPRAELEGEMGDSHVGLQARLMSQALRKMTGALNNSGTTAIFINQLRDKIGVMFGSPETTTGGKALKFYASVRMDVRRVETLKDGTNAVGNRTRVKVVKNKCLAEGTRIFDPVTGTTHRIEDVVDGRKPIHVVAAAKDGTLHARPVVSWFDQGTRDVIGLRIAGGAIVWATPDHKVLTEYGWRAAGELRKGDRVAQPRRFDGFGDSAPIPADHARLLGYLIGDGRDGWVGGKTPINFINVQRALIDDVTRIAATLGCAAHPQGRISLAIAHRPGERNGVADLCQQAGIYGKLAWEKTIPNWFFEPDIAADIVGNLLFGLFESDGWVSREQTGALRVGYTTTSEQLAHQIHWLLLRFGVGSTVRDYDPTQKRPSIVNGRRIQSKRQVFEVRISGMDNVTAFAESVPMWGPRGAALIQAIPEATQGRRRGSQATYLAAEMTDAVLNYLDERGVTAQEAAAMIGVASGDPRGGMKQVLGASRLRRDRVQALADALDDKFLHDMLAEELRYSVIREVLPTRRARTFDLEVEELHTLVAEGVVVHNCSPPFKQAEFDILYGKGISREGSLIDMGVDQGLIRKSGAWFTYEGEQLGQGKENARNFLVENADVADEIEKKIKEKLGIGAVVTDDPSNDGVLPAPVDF
# [13] = HEK-293T viability loss after treatment – luminescence, T-cell screen hits, cytotoxicity control for TCR NF-kB inhibitor project, dose response (AID 489026); assay type: functional, cell-based;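 note: cells exposed to compound about 14 hours before the viability readout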
# [14] = target: T4, Leucine aminopeptidase (Plasmodium falciparum 3D7, UniProt Q8IL11); experiment: P. falciparum M17LAP inhibitors, primary screen, biochemical, fluorogenic H-Leu-NHMec substrate, 1536-well (AID 1619); assay type: functional
# T4 sequence (Q8IL11 whole entry): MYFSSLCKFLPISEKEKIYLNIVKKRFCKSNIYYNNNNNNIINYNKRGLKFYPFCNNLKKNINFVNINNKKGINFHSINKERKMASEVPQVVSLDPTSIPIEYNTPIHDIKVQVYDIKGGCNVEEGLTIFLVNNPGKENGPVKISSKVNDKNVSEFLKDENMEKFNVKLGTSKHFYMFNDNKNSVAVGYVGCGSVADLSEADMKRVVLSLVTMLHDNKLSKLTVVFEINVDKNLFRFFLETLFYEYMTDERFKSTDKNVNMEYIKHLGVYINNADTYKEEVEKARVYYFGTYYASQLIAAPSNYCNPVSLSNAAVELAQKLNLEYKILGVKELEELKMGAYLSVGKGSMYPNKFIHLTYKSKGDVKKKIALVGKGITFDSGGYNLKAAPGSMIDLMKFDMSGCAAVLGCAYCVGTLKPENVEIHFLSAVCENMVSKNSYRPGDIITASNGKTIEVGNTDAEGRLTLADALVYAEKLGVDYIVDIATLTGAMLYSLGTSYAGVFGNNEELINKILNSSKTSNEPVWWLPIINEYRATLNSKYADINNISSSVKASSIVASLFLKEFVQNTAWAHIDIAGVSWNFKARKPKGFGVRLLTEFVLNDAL
# [15] = viability of uninfected HEp-2 cells – cell-based, HTS, cytotoxicity control for RSV inhibitor project, dose response (AID 2410); assay type: functional; conditions: human respiratory syncytial virus
# [16] = test system: BJ; experiment: BJ-TERT fibroblast viability loss – cell-based, RAS-independent, luminescence, dose response (AID 1933); assay type: functional; conditions: Homo sapiens
# [17] = test system: BJ; experiment: cells; assay type: functional, cell-based; conditions: Homo sapiens
# [18] = test system: BJ; experiment: BJ-TERT-LT-ST fibroblast viability loss – cell-based, RAS-independent, luminescence, dose response (AID 1935); assay type: functional; conditions: Homo sapiens;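 note: BJ fibroblasts immortalized with TERT plus LT and ST oncogenes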
# [19] = DRD fibroblast viability loss – cell-based, non-viral oncogenic, luminescence, dose response (AID 1934); assay type: functional; conditions: Homo sapiens
# [20] = target: T5, Carboxy-terminal domain RNA polymerase II polypeptide A small phosphatase 1 (Homo sapiens, UniProt Q9GZU7); experiment: CTDSP1 inhibitors, concentration-response, biochemical, absorbance readout, ultra-high-throughput screen actives (AID 540297); assay type: functional
# T5 sequence (Q9GZU7 whole entry): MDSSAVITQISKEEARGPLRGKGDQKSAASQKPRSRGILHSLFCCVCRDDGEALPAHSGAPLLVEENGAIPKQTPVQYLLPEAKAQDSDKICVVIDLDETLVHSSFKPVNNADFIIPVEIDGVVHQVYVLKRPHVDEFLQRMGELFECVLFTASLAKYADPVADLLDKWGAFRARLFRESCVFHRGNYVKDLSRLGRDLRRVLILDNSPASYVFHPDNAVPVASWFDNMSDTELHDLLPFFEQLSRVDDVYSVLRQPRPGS
# [21] = target: T6, Fatty acid synthase (Homo sapiens, UniProt P49327); experiment: inhibition of human FAS-TE enzyme activity – biochemical, endpoint fluorescence intensity, uHTS hits, dose response (AID 624327); assay type: functional;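 note: fluorescence from hydrolysis of an O-methyl fluorescein acyl ester substrate by the enzyme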
# [22] = target: T6, Fatty acid synthase; experiment: inhibition of human FAS-TE enzyme activity – biochemical, kinetic fluorescence intensity, dose response (AID 624326); assay type: functional;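 note: rate of fluorescence rise from hydrolysis of a fluorogenic O-methyl fluorescein ester substrate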
# [23] = target: Paired box protein Pax-8 (Homo sapiens, UniProt Q06710); experiment: PAX8 transcriptional activity inhibition in RMG-I – RMG-I cells, luciferase, cherry-pick, dose response (AID 687027); assay type: functional, cell-based;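 note: luciferase reporter driven by Pax8 target thyroperoxidase promoter measured by SteadyGlo luminescence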
# Paired box protein Pax-8, sequence (Q06710 whole entry): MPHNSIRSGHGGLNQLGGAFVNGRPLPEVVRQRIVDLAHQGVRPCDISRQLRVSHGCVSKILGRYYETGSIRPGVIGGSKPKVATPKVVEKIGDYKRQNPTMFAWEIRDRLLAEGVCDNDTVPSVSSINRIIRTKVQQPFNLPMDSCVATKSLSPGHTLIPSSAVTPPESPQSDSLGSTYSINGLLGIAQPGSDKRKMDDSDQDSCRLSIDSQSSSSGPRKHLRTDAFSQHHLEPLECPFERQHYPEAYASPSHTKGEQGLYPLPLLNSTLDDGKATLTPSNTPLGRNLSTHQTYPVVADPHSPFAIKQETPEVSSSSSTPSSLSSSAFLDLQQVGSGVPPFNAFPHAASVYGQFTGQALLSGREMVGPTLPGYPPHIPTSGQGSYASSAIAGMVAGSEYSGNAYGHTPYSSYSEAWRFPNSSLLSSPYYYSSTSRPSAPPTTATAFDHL
# Glyceraldehyde-3-phosphate dehydrogenase, sequence (P04406 whole entry): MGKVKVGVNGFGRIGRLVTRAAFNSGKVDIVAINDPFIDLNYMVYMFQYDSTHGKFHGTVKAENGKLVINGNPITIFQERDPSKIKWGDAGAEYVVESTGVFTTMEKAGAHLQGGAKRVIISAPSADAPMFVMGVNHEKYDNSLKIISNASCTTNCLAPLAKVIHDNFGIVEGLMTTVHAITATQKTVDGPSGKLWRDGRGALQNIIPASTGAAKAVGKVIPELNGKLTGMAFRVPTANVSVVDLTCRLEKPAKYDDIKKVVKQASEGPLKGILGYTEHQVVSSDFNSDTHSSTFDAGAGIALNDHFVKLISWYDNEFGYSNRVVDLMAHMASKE
# ATP-dependent molecular chaperone HSP82, sequence (C4YTQ8 whole entry): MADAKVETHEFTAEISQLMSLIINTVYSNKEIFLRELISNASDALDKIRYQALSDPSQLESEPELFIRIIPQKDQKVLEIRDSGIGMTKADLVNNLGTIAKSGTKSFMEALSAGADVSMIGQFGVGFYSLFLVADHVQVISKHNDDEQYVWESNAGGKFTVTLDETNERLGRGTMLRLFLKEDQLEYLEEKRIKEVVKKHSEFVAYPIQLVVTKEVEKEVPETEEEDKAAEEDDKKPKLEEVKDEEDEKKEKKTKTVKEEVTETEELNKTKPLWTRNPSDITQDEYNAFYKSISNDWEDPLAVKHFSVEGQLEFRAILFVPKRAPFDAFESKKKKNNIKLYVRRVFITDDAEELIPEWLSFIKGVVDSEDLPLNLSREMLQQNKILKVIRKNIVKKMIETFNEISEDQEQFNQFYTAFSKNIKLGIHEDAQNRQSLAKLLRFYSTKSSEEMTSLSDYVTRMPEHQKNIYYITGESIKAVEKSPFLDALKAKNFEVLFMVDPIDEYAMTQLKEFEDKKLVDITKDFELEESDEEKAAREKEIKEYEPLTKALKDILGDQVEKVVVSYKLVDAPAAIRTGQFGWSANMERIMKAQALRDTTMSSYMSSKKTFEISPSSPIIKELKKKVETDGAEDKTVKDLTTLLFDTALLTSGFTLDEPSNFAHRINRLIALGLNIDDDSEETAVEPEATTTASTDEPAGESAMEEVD
# Genome polyprotein, sequence (P29990 2492-3391 limits assumed): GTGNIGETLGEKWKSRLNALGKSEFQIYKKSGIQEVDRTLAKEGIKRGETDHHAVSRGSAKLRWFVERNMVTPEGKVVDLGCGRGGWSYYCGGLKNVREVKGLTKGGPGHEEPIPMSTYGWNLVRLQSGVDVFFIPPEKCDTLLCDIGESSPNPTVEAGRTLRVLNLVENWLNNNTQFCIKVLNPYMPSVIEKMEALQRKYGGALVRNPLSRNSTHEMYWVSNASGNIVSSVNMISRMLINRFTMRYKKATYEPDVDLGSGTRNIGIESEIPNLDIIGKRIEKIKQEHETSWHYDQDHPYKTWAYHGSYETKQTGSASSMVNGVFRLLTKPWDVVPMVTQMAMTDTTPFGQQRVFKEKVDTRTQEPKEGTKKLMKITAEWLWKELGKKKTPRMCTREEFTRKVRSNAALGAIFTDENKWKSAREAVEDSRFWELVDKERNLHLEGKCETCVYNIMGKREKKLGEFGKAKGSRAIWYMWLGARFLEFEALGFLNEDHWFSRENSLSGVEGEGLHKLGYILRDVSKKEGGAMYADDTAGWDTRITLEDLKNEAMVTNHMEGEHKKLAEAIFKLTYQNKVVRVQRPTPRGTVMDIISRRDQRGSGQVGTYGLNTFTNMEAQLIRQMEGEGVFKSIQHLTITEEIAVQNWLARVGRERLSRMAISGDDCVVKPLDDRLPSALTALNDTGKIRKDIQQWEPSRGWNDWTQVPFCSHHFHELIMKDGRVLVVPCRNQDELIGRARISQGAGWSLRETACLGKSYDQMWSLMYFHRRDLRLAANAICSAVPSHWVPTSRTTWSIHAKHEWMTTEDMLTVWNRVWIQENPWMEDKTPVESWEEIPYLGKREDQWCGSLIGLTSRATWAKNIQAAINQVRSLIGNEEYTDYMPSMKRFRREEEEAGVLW
# T6 sequence (P49327 whole entry): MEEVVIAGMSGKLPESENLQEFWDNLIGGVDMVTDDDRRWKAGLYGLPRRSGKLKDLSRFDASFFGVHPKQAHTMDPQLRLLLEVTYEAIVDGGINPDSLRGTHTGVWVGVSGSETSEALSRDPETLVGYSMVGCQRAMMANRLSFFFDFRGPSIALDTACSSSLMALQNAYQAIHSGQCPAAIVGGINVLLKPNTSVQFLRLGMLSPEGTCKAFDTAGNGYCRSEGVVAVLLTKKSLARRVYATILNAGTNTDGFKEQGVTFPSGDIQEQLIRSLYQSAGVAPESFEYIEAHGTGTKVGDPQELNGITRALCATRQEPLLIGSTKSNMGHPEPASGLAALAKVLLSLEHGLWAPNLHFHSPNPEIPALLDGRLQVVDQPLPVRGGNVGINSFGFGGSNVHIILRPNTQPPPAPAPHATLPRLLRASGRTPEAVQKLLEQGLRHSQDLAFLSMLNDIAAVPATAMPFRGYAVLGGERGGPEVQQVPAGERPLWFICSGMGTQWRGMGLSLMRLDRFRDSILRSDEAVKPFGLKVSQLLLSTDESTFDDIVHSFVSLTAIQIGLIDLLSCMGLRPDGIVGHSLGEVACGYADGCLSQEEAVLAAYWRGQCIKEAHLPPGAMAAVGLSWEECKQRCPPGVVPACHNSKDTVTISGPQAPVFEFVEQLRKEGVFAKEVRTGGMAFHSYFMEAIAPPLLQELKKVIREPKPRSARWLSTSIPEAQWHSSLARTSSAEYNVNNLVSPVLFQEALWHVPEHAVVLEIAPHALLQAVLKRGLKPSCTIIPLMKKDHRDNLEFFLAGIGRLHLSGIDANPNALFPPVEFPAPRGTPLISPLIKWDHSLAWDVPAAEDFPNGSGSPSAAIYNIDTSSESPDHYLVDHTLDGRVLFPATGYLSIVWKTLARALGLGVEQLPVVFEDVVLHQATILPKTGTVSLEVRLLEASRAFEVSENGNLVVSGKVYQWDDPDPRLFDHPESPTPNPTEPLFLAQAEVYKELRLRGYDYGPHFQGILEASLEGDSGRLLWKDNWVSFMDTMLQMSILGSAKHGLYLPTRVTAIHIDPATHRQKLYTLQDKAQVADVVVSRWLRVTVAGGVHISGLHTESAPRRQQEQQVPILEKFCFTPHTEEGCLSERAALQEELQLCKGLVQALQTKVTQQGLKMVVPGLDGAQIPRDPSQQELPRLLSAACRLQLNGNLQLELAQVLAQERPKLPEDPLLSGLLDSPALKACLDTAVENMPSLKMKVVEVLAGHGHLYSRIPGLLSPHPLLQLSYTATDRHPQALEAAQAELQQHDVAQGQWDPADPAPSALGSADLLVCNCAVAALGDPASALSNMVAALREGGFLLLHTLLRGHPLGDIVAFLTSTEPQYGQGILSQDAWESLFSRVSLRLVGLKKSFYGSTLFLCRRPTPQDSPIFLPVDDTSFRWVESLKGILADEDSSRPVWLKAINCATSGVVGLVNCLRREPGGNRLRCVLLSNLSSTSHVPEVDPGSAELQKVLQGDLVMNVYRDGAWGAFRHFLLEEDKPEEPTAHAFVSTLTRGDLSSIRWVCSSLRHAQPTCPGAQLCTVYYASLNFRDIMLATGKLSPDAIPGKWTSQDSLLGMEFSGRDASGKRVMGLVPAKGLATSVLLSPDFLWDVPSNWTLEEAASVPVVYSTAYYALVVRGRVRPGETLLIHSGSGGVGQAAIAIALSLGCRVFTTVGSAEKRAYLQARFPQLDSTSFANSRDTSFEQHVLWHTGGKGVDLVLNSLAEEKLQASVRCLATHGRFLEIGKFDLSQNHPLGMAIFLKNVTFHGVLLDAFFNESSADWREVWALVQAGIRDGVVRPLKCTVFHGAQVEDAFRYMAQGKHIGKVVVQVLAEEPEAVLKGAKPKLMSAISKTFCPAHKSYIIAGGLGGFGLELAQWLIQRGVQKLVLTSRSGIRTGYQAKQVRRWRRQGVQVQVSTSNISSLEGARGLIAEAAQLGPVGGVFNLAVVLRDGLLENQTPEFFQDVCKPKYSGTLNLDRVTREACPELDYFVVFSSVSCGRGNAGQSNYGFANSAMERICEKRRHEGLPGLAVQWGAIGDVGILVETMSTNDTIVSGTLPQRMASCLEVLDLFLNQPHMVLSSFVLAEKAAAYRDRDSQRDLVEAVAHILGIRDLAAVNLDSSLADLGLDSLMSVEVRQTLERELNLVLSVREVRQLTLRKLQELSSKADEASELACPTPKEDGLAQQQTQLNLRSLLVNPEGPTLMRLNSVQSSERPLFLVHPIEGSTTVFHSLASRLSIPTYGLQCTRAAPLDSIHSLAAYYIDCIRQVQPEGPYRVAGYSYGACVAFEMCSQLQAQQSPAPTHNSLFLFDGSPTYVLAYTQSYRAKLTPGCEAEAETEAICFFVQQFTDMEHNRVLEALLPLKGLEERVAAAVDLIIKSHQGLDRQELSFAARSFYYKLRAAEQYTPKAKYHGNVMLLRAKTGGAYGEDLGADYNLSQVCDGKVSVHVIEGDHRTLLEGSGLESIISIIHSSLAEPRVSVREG
smiles,measurement,setting,value
CC(C)c1ccc(NC(=S)NN(c2ccccc2)c2ccccc2)cc1,IC50,[1],0.793 µM (active)
COc1ccc(C(=O)N2c3ccccc3C=CC2C#N)cc1 (stereo not drawn),EC50,[2],> 160 µM (inconclusive)
same,EC50,[3],0.186 µM (active)
same,EC50,[4],> 180 µM (inactive)
same,EC50,[5],> 150 µM (inactive)
Cc1ccccc1-n1cnnc1SCC(=O)N1CCN(c2ccccc2)CC1,IC50,[6],36.3 µM (active)
Cc1ccc(S(=O)(=O)NN2C(=O)/C(=C/c3cccc(F)c3)SC2=S)cc1,IC50,[7],27.2 µM (active)
S=C1SCN(Cc2cccnc2)CN1Cc1ccccc1,CC50,[8],15.2 µM (active)
same,CC50,[9],11 µM (active)
same,IC50,[10],18.2 µM (active)
Cc1ccc(N2C(=O)C(Cl)=C(N3CCN(C)CC3)C2=O)c(C)c1,AC50,[11],8.01 µM (active)
same,EC50,[12],2.35 µM (active)
same,IC50,[7],40.5 µM (active)
CSC(=Nc1ccc(Br)cc1F)NS(=O)(=O)c1cccs1,EC50,[2],> 150 µM (inactive)
same,EC50,[3],0.239 µM (active)
same,EC50,[4],> 180 µM (inactive)
same,EC50,[5],18.6 µM (active)
O=C(Oc1cc2oc(=O)c3c(c2cc1Cl)CCCC3)c1cccs1,EC50,[2],> 150 µM (inactive)
same,EC50,[3],1.12 µM (active)
same,EC50,[4],> 180 µM (inactive)
same,EC50,[5],21.4 µM (active)
CCN1CCN(C2=C(Cl)C(=O)N(c3ccnc(Cl)c3)C2=O)CC1,IC50,[6],> 50 µM (inconclusive)
CCOc1ccccc1C(=O)Nc1ccc2nc(N3CCN(c4ncccn4)CC3)cc(C)c2c1,IC50,[13],> 80 µM (inactive)
N#CC1=C(N)Oc2[nH]nc(-c3ccccc3)c2C1c1cccnc1 (stereo not drawn),IC50,[14],60.4 µM (active)
same,AC50,[11],6.14 µM (active)
same,EC50,[12],1.79 µM (active)
COc1ccc(CN2C(=O)/C(=C/c3ccncc3)SC2=S)cc1,CC50,[15],10.3 µM (active)
same,EC50,[16],13.8 µM (active)
same,EC50,[17],> 150 µM (inconclusive)
same,EC50,[18],> 75 µM (inconclusive)
same,EC50,[19],16.9 µM (active)
same,CC50,[8],18 µM (active)
same,CC50,[9],7.52 µM (active)
same,IC50,[10],21.2 µM (active)
Cc1oc2c(C)c3oc(=O)c(CC(=O)N[C@@H](CC(C)C)C(=O)N[C@@H](Cc4ccccc4)C(=O)O)c(C)c3cc2c1C,IC50,[7],72.6 µM (active)
same,IC50,[20],4.59 µM (active)
CSc1ccc(COC(=O)c2cc([N+](=O)[O-])ccc2N2CCOCC2)cc1,EC50,[16],0.652 µM (inconclusive)
same,EC50,[17],1.09 µM (active)
same,EC50,[18],0.385 µM (active)
same,EC50,[19],0.653 µM (active)
same,IC50,[13],> 80 µM (inactive)
same,IC50,[21],4.08 µM (active)
same,IC50,[22],3.26 µM (active)
same,AC50,[23],0.619 µM (active)
O=C1C2CC=CCC2C(=O)N1c1nc(-c2cccnc2)n[nH]1 (stereo not drawn),IC50,[6],> 100 µM (not active)
CCn1c(NC(=O)C2CCCCC2)nc2ccccc21,CC50,[8],31.7 µM (active)
same,CC50,[9],> 20 µM (active)
same,IC50,[10],1.33 µM (active)
